Here are results for two molecules from patent publication US20050164370A1 (priority 2003, published 2005).

What all share (format): cell-based, yeast
Assay [1] concerns transformed cells TM182-CYC1-CYC1IPT5. Kind of assay: Liquid culture of transformed cell TM182-CYC1-CYC1IPT5 with examinee substance, absorbance. Conditions: DOHLU+Glu, 30° C. for 24 hours. As for the experimental part: (§1) The thus obtained culture solutions were diluted with DOHLU+Glu culture medium so that OD600 became 0.200, and then the diluted ones were further diluted with DOHLU+Glu culture medium at a dilution rate of 1/200 to obtain diluted pre-cultured solutions.
(§2) A 96-well assay plate was prepared by filling each well with 1 μL of a DMSO solution of an examinee substance (Abscisic acid or 6-Benzyl aminopurine). In this regard, it is to be noted that the DMSO solution of a examinee substance was prepared so that the concentration thereof became 200 ppm. Simultaneously, an assay plate was prepared by filling each well with 1 μL of DMSO as a blank section.
(§3) Each of the diluted pre-cultured solutions was added in a volume of 100 μL per each well of both of the assay plates, and was cultured at 30° C. for 24 hours. After incubation, the turbidity of each well was measured using a plate reader. The absorbance (OD600) of each of the culture solutions of the transformed cells containing the examinee substance was shown in Table 3. […] Further, the growth speeds of the transformed cells TM182-CRE1-CYC1IPT4 and TM182-CRE1-ADHIPT5 in the culture medium to which 6-Benzyl aminopurine was added were faster than those in the culture medium to which only DMSO was added.
as §3, with “4.” for “3.”, “TM182-CRE1-ADHIPT4, TM182-AHK2-CYC1IPT4, TM182-AHK2-CYC1IPT5” for “TM182-CRE1-CYC1IPT4”, “TM182-AHK2-ADHIPT5” for “TM182-CRE1-ADHIPT5”

Assay [2] has as its system transformed cells TM182-CRE1-ADHIPT4. Kind of assay: Liquid culture of transformed cell TM182-CRE1-ADHIPT4 with examinee substance, absorbance. Particulars: Table 4, TM182-CRE1-ADH-IPT4, 1 μL of 200 ppm DMSO solution per 100 μL, DOHLU+Glu, 30° C. for 24 hours. As for the experimental part:
as §1, §2
as §3, with “4.” for “3.”, “TM182-CRE1-ADHIPT4, TM182-AHK2-CYC1IPT4, TM182-AHK2-CYC1IPT5” for “TM182-CRE1-CYC1IPT4”, “TM182-AHK2-ADHIPT5” for “TM182-CRE1-ADHIPT5”

The target of a further assay is T1, cytokinin receptor AHK2Δ (Arabidopsis thaliana, UniProt Q9C5U2).
T1 sequence (Q9C5U2 196-1176): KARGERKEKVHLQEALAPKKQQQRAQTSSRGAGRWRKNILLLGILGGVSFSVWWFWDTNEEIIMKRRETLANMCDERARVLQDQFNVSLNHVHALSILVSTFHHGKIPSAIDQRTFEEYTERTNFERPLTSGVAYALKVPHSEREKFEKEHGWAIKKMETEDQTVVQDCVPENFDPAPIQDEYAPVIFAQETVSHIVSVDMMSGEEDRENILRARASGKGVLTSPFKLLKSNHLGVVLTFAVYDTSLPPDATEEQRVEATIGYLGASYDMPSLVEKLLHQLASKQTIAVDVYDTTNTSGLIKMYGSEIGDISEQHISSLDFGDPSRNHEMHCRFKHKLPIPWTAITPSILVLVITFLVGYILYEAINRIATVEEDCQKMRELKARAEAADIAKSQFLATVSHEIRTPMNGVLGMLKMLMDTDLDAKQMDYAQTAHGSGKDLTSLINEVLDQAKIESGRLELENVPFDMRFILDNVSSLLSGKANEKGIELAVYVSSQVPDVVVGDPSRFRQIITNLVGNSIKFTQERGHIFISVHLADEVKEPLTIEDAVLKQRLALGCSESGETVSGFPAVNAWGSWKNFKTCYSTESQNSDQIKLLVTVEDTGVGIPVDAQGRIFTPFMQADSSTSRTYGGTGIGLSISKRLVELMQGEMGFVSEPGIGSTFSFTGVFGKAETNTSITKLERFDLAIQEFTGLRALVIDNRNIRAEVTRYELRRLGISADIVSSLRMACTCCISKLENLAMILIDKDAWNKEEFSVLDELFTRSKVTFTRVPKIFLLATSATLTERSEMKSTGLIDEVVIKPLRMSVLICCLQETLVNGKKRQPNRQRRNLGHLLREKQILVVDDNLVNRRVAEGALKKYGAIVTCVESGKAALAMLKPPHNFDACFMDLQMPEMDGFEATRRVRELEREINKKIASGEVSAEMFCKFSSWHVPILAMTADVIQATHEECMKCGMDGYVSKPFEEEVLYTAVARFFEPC
Also noted: added initiator methionine (ATG added at the 5' end) (N); expressed in transfected cells; host or cells: yeast strain TM182 carrying plasmid p415CYC-AHK2Δ (pHM-1 backbone, CYC1 promoter). Conditions: TM182-AHK2Δ, examinee substance 100 μM, DOLU+Glu, 30° C. for 24 hours. The method, then:
The transformed cells TM182-AHK2, TM182-AHK2Δ and TM182-AHK3 produced in the reference example 1 were inoculated in 200 ml of DOLU+Gal culture media and pre-cultured at 30° C. for 36 hours. The pre-cultured solutions were diluted with DOLU+Glu media as to become 0.100 as the optical density (OD600) and further the resultants were diluted with DOLU+Glu media at a dilution rate of 1/200 to obtain diluted pre-cultured solutions.
An assay plate was prepared by filling respective wells of a 96-well plate with 20 μl of solutions which were prepared by diluting DMSO solution (10 mM) of each examinee substance with DOLU+Glu medium at a dilution rate of 1/100, said solutions containing each examinee substance to be […]. […]
The diluted pre-cultured solutions were added in 200 μl each into the respective wells of both assay plates and cultured at 30° C. for 24 hours and then the optical density (OD620) of each well was measured by a plate reader. The agonist-activity of the examinee substances to the cytokinin receptor was detected by comparing the optical density measured in the testing sections to which the examinee substances were added with the optical density measured in the blank sections.

The mark [3] stands for this setting: Table 3, TM182-CYC1-CYC1-IPT5, 1 μL of 200 ppm DMSO solution per 100 μL.
[4] abbreviates: Table 4, TM182-CYC1-CYC1-IPT5, 1 μL of 200 ppm DMSO solution per 100 μL.

As for `CC1=CC(=O)CC(C)(C)[C@@]1(O)/C=C/C(C)=C\C(=O)O` [Compound A, Abscisic acid], the “absorbance (OD600) of the culture solution” value in assay [1] (setting [3]) came out at 0.041; in assay [1] (setting [4]), 0.036; in assay [2], 0.045. In addition, the “optical density (OD620) of the culture solution” value on cytokinin receptor AHK2Δ is on record as 0.
`c1ccc(CNc2ncnc3nc[nH]c23)cc1` [Compound B, 6-Benzyl aminopurine]: the “absorbance (OD600) of the culture solution” value in assay [1] (setting [3]) turned out to be 0.043; in assay [1] (setting [4]), 0.035; in assay [2], 0.058. Also, the “optical density (OD620) of the culture solution” value at cytokinin receptor AHK2Δ came out at 0.89.
